The source of these data is patent publication US9850283B2, “Macrocyclic inhibitors of the PD-1/PD-L1 and CD80(B7-1)/PD-L1 protein/protein interactions” (BRISTOL-MYERS SQUIBB COMPANY, priority 2013, dated 2017).

For assay [1], the target named is T1, LK35.2-hPD-L1 cells / PE-labeled PD-1-Ig (Homo sapiens, UniProt Q9NZQ7).
T1 construct: expressed in transfected cells; host or cells: LK35.2 mouse B cell line
Description: LK35.2-hPD-L1 cell binding high-content screening assay. It is filed as cell-based. In short, it runs like this:
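Fluorescent PD-1-Ig binding to PD-L1-expressing LK35.2 cells, imaged after washing. Conditions: 1 nM PE-PD-1-Ig, 37 °C, 1 h, RPMI with 10% fetal calf serum.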

The next assay addresses T2, Human PD-L1/PD-1 (Homo sapiens, UniProt Q9NZQ7).
T2 construct: made in house; host or cells: HEK293T
Description: HTRF PD-1-Ig/PD-L1-His binding assay (human PD-L1). An outline of the steps:
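Interaction of Fc-tagged soluble PD-1 with His-tagged soluble PD-L1 is monitored by time-resolved FRET. Donor is europium cryptate anti-Ig (1 nM final) and acceptor is APC anti-His (20 nM final). Assay buffer is dPBS with 0.1% BSA and 0.05% Tween-20.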
A general note: TR-FRET usually uses a lanthanide donor and a delayed reading to cut background.

Setting [2] is: cell binding assay, cell line not given, cluster symbol, read-out: CBA IC50 cluster.
Where [3] appears, read: cluster symbol, read-out: HTRF IC50 cluster.
The mark [4] stands for this setting: cluster symbol, cell line of CBA not given (LK35.2-hPD-L1 or 293T-hPD-L1), read-out: CBA IC50 cluster.

Where two headings read alike, the source gives them in different places. Positions of bridges follow the written chain, without caps; N, C: chain ends. Non-standard residues stand in square brackets, D forms with d. Residues, ends and D or L forms follow the SMILES beside them. ξ: configuration not given here. *: point of attachment. Trp(1-CH2COOH) = N[C@@H](Cc1cn(CC(=O)O)c2ccccc12)C(=O)O; cisHyp = O=C(O)[C@@H]1C[C@H](O)CN1; Hyp = O=C(O)[C@@H]1C[C@@H](O)CN1; NMeF = CN[C@@H](Cc1ccccc1)C(=O)O; dNMeNle = CCCC[C@@H](NC)C(=O)O; NMeNle = CCCC[C@H](NC)C(=O)O; NMeS = CN[C@@H](CO)C(=O)O; Pip = O=C(O)[C@@H]1CCCCN1; NMeA = CN[C@@H](C)C(=O)O; dThz = O=C(O)[C@H]1CSCN1; Dab = NCC[C@H](N)C(=O)O; Dap = NC[C@H](N)C(=O)O; ξP = O=C(O)C1CCCN1; Bn = c1ccc(C*)cc1; Sar = CNCC(=O)O

T2 sequence (Q9NZQ7 with tags, fused parts or gaps): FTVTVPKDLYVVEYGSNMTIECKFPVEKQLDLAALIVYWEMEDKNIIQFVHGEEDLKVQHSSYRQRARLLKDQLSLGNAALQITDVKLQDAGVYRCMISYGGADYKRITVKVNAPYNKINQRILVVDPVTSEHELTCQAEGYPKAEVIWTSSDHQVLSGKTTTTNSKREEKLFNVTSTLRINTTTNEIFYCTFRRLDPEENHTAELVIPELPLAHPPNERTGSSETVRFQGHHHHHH
T1 sequence (Q9NZQ7 19-290): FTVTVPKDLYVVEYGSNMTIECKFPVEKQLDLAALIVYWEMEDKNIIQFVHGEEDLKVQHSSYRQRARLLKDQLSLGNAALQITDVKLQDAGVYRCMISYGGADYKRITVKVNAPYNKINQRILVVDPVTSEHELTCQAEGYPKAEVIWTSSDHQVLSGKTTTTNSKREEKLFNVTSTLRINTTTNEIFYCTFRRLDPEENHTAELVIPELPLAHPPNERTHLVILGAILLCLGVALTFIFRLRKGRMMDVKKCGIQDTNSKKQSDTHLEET

One may read the IC50 as the point on the concentration scale where inhibition reaches its midpoint. As to `CCCC[C@@H]1C(=O)N[C@@H](CC(C)C)C(=O)N[C@H](C(=O)NCC(N)=O)CSCC(=O)N[C@@H](Cc2ccc(O)cc2)C(=O)N(C)[C@@H](C)C(=O)N[C@@H](CC(N)=O)C(=O)N2CCC[C@H]2C(=O)N[C@@H](CN)C(=O)N[C@@H](CC(C)C)C(=O)N2C[C@@H](O)C[C@H]2C(=O)N[C@@H](Cc2c[nH]c3ccccc23)C(=O)N[C@@H](CCN)C(=O)N[C@@H](Cc2cn(CC(=O)O)c3ccccc23)C(=O)N(C)[C@@H](CCCC)C(=O)N1C` [Example 6046] ({CH2CO}-Y[NMeA]NP[Dap]L[cisHyp]W[Dab][Trp(1-CH2COOH)][NMeNle][dNMeNle]LCG-NH2; thioether N-14), the IC50 is 0.158 to 4.71 nM in assay [1] (setting [2]) and 0.385 to 6.74 nM at Human PD-L1/PD-1 (setting [3]).
With `CCCC[C@H]1C(=O)N(C)CC(=O)N[C@@H](CC(=O)O)C(=O)N[C@@H](C(C)C)C(=O)N(C)[C@@H](Cc2ccccc2)C(=O)N[C@@H](Cc2ccc(O)cc2)C(=O)N2CSC[C@@H]2C(=O)N[C@@H](Cc2c[nH]c3ccccc23)C(=O)N[C@@H](Cc2ccc(O)cc2)C(=O)N[C@@H](CC(C)C)C(=O)N[C@H](C(=O)NCC(N)=O)CSCC(=O)N[C@@H](Cc2ccccc2)C(=O)N(C)[C@@H](Cc2ccccc2)C(=O)N1C` [Example 3601] ({CH2CO}-F[NMeF][NMeNle][Sar]DV[NMeF]Y[dThz]WYLCG-NH2; thioether N-13), the IC50 in assay [1] (cell binding assay, cell line not given, value given instead of cluster, read-out: CBA IC50 value) was 1.79 nM; on Human PD-L1/PD-1 (value given instead of cluster, read-out: HTRF IC50 value), 6.91 nM.
With `CCCC[C@H]1C(=O)N(C)[C@@H](CCCC)C(=O)N[C@@H](CC(=O)O)C(=O)N[C@H](C(=O)NCC(N)=O)CSCC(=O)N[C@@H](Cc2ccc(O)cc2)C(=O)N(C)[C@@H](C)C(=O)N[C@@H](CC(=O)O)C(=O)N2CCC[C@H]2C(=O)N[C@@H](Cc2c[nH]cn2)C(=O)N[C@@H](CCCNC(=N)N)C(=O)N2CCCC2C(=O)N[C@@H](Cc2c[nH]c3ccccc23)C(=O)N[C@@H](CCCNC(=N)N)C(=O)N[C@@H](Cc2c[nH]c3ccccc23)C(=O)N1C` (stereo partly drawn) [Example 1201] ({CH2CO}-Y[NMeA]DPHR[ξP]WRW[NMeNle][NMeNle]DCG-NH2; thioether N-14), the IC50 in assay [1] (setting [4]) lay in the range of 4.78 to 72.9 nM; at Human PD-L1/PD-1 (setting [3]), 6.76 to 30.3 nM.
For the molecule `CCCC[C@H]1C(=O)N(C)[C@@H](COCc2ccccc2)C(=O)N[C@@H](CCCNC(=N)N)C(=O)N[C@H](C(=O)NCC(N)=O)CSCC(=O)N[C@@H](Cc2ccccc2)C(=O)N(C)[C@@H](C)C(=O)N[C@@H](CC(N)=O)C(=O)N2CCC[C@H]2C(=O)N[C@@H](Cc2cnc[nH]2)C(=O)N[C@@H](CC(C)C)C(=O)N(C)CC(=O)N[C@@H](Cc2c[nH]c3ccccc23)C(=O)N[C@@H](CO)C(=O)N[C@@H](Cc2c[nH]c3ccccc23)C(=O)N1C` [Example 6016] ({CH2CO}-F[NMeA]NPHL[Sar]WSW[NMeNle][NMeS](Bn)RCG-NH2; thioether N-14), the IC50 is 4.78 to 72.9 nM in assay [1] (setting [2]) and 6.76 to 30.3 nM on Human PD-L1/PD-1 (setting [3]).
As to `CCCC[C@H]1C(=O)N(C)[C@@H](CCCC)C(=O)N[C@@H](CC(C)C)C(=O)N[C@H](C(=O)NCC(N)=O)CSCC(=O)N[C@@H](Cc2ccc(O)cc2)C(=O)N(C)[C@@H](C)C(=O)N[C@@H](CCN)C(=O)N2CCC[C@H]2C(=O)N[C@@H](Cc2c[nH]cn2)C(=O)N[C@@H](CCC(=O)O)C(=O)N2C[C@H](O)C[C@H]2C(=O)N[C@@H](Cc2c[nH]c3ccccc23)C(=O)N[C@@H](CCN)C(=O)N[C@@H](Cc2c[nH]c3ccccc23)C(=O)N1C` [Example 5090] ({CH2CO}-Y[NMeA][Dab]PHE[Hyp]W[Dab]W[NMeNle][NMeNle]LCG-NH2; thioether N-14), the IC50 was in the range of 4.78 to 72.9 nM in assay [1] (setting [2]) and 0.385 to 6.74 nM at Human PD-L1/PD-1 (setting [3]).
With `CCCC[C@H]1C(=O)N(C)[C@@H](CCCC)C(=O)N[C@@H](CCCNC(=N)N)C(=O)N[C@H](C(=O)NCC(N)=O)CSCC(=O)N[C@@H](Cc2ccc(O)cc2)C(=O)N2CCCC[C@H]2C(=O)N[C@@H](CC(N)=O)C(=O)N2CCC[C@H]2C(=O)N[C@@H](CN)C(=O)N[C@@H](CC(C)C)C(=O)N2C[C@H](O)C[C@H]2C(=O)N[C@@H](Cc2c[nH]c3ccccc23)C(=O)N[C@@H](CO)C(=O)N[C@@H](Cc2c[nH]c3ccccc23)C(=O)N1C` [Example 1236] ({CH2CO}-Y[Pip]NP[Dap]L[Hyp]WSW[NMeNle][NMeNle]RCG-NH2; thioether N-14), the IC50 in assay [1] (setting [4]) lay in the range of 0.158 to 4.71 nM; at Human PD-L1/PD-1 (setting [3]), 6.76 to 30.3 nM.
